According to patent publication US10357533B2, “Drug for the effective control of acute and or chronic pain and a method for its administration” (PVP LABS PTE. LTD., priority 2016, dated 2019):
Where a SMILES comes first, the peptide text is derived from it. [ ]: non-standard residue; d: D form.

Experiments:
mice [1] = assay: Antinociceptive tolerance and withdrawal syndrome, tail flick test in mice; format: in vivo; details: for TFL, s, Baseline values (Mean ± SEM): before administering
Method: The tail flick test was the main method of evaluating peptide compound antinociceptive tolerance and withdrawal syndrome. The test involved evaluating tail flick latency (TFLtest). Baseline tail flick latency TFLbase was evaluated before administering the substances. The test was performed in outbred male mice.
The animals were randomized into 4 groups of 10 animals in each group: Group 1: control—the animals were administered subcutaneous injections of water for injections for 14 days; Group 2: single peptide compound administration group—the animals were administered water for injections for 13 days and peptide compound at a dose of 0.5 mg/kg on day 14 by subcutaneous injection; Group 3: chronic peptide compound administration group—the animals were administered with peptide compound at a dose of 0.5 mg/kg by subcutaneous injection for 14 days; Group 4: withdrawal group—the animals were administered with peptide compound at a dose of 0.5 mg/kg by subcutaneous injection for 14 days, withdrawal test was evaluated after 48 hours.
The last injection of the drug/water to groups 1-3 was administered 40 minutes before the test.

mice [2] = assay: Open field test and toxicity of high doses in mice; format: in vivo; details: intraperitoneally
Method: Testing of the influence of the injectable substance based on tetrapeptide (as in example 2) H-Tyr-D-Arg-Phe-Gly-NH2 on the behavior of animals, was provided in the study of the toxicity of high doses of the “open field” test and maintaining balance on a horizontal rod.
The aim of the experiment was to identify an effective dose of the substance that affects the behavior of the animals. It was tested on several animals after administration of different doses of peptide compound.
The experimental and control groups of male mice were taken from the same batch, about the same weight (22-24 g).
The substance was injected intraperitoneally in identical weight amounts to laboratory animals in the experimental and control groups, respectively. […] The measurement was started 15 minutes after injection.
Several groups were organized: without the introduction of the substance, and with the introduction of a solution of morphine or peptide. After 15 from injection we conducted measurement in the following order:
Each animal tested was introduced into a round, not brightly lit arena. The surface is divided into square blocks of 10 cm each. We count locomotor activity of the mouse when it crossed the square. The movement of the mouse in the center of the arena and on the periphery, are recorded separately. We registered the number of times the mouse stands on its hind legs “stand” and the number of times the mouse looks into a “burrow”—ie. holes in the floor. Observations were done visually and were simultaneously entered into a computer using a keyboard (semi-automatic registration).

patients = assay: Clinical application in patients with severe pain; format: in vivo, humans
Method: The use of the peptide compound in patients who have been informed about the drug and who have given their consent
When the morphine drug therapy was once again possible, the use of the experimental prototype of the drug was stopped.
Based on the extrapolation of animal data for dosages for humans, we decided to use 0.7-3 mg of the active tetrapeptide in a single dose, administered by subcutaneous injection, and under the supervision of a specialist. The drug was packaged in lyophilized form of 3 mg per vial before use and dissolved in 1-3 ml of water for injections.
The following parameters were recorded:
1. Time of onset of analgesic effect, duration of effect.
Dynamics of pain on a numerical scale of 0-10: 0—no pain, 10—unbearable pain. The patient makes regular notes on the intensity level of pain during treatment to assess the analgesic effect. Separately, the intensity of pain is noted before receiving the experimental prototype preparation, and during its' administration. 2. The physical activity of the patient. Measured on a scale: 1—normal activity, 2—activity is reduced; the patient is able to go to their own doctor, 3—bed rest at least 50% of the day, 4—bed rest for more than 50% of the day, 5—complete bed rest. 3. Subjective feelings of the patient A change of perception, mood, presence/absence of euphoria or dysphoria, discomfort in the body, feelings in the digestive tract.
Basically, the study was conducted in patients with somatic and internal types of pain, though often it was not possible to accurately classify the type of pain.

[3] = 0.5 mg/kg subcutaneous for 14 days, withdrawal test after 48 hours

N=C(N)NCCC[C@@H](NC(=O)[C@@H](N)Cc1ccc(O)cc1)C(=O)N[C@@H](Cc1ccccc1)C(=O)NCC(N)=O [Peptide compound, H-Tyr-D-Arg-Phe-Gly-NH2] (H-Y[dR]FG-NH2)
MPE, % (Mean ± SEM) (mice [1]; 0.5 mg/kg subcutaneous chronic dosing for 14 days): 50.5 ± 13.92 % | TFL, s, After dosing (Mean ± SEM) (mice [1]; 0.5 mg/kg subcutaneous chronic dosing for 14 days, 40 minutes before the test): 8.6 ± 1.25 s | MPE, % (Mean ± SEM) (mice [1]; [3]): 1.3 ± 3.72% | TFL, s, After dosing (Mean ± SEM) (mice [1]; [3]): 4.8 ± 0.36 s | MPE, % (Mean ± SEM) (mice [1]; 0.5 mg/kg subcutaneous single dose on day 14): 43.3 ± 11.19 % | TFL, s, After dosing (Mean ± SEM) (mice [1]; 0.5 mg/kg subcutaneous single dose on day 14, 40 minutes before the test): 8.0 ± 1.03 s | tolerance or withdrawal syndrome (mice [1]; 0.5 mg/kg subcutaneously, single dosing or chronic treatment): lack of tolerance or withdrawal syndrome | TFL, s, Baseline values (Mean ± SEM) (mice [1]; group 0.5 mg/kg chronic dosing): 4.6 ± 0.26 s | TFL, s, Baseline values (Mean ± SEM) (mice [1]; group 0.5 mg/kg single dose): 4.5 ± 0.36 s | TFL, s, Baseline values (Mean ± SEM) (mice [1]; group 0.5 mg/kg withdrawal): 4.7 ± 0.24 s | doses that do not result in toxic effects (mice [2]): up to 200 EC50 | toxic effects (mice [2]; dose of 100 mg/kg): the animals continued to move actively, breathing was not inhibited, and heart beats were stable | reduced activity moving around the field (mice [2]; open field, dose of 20-100 mg/kg, 15 minutes after injection): 20-25% | reduction in exploratory activity ("stand-burrow") (mice [2]; open field, large doses): 20-30% | duration of analgesic effect (patients; Patient 1, 3 mg 2 times a day): 8 to 12 h | subjective feelings / negative effects (patients; Patient 1, 3 mg 2 times a day, first injection): very light dysphoric effect for 10-15 minutes | degree of analgesia, pain scale 0-10 (patients; Patient 1, pain before 6-9, 3 mg 2 times a day): 1-3 | Time of analgesia (onset) (patients; Patient 1, pancreatic cancer stage IV, pain 6-9, 3 mg 2 times a day subcutaneous, 5 days): 10 to 15 min | duration of analgesic effect (patients; Patient 2): 6 to 12 h | negative effects (patients; Patient 2): No negative effects were detected | degree of analgesia, pain scale 0-10 (patients; Patient 2, 2 mg three times first day, then 1.5 mg 2 times a day): 2-3 | Time of analgesia (onset) (patients; Patient 2, colon cancer stage IV, 2 mg three times first day, then 1.5 mg 2 times a day, 4 days): 10 to 15 min | duration of analgesic effect (patients; Patient 3): 8 to 10 h | negative effects (patients; Patient 3): No negative effects were detected | Time of analgesia (onset) (patients; Patient 3, colon cancer stage IV, pain 7-10, 1.5 mg 2 times a day, 4 days): 10 to 15 min | degree of analgesia, pain scale 0-10 (patients; Patient 3, pain before 7-10, 1.5 mg 2 times a day): 1-3 | duration of analgesic effect (patients; Patient 4): 8 to 10 h | negative effects (patients; Patient 4): No negative effects were detected | time of analgesic effect (onset) (patients; Patient 4, breast cancer stage IV, pain 7-10, 1.5 mg 2 times a day, 5 days): 10 to 20 min | degree of analgesia, pain scale 0-10 (patients; Patient 4, pain before 7-10, 1.5 mg 2 times a day): 1-3 | duration of analgesic effect (patients; Patient 5): 8 to 10 h | negative effects (patients; Patient 5): No negative effects were detected | Time of analgesia (onset) (patients; Patient 5, breast cancer stage IV, pain 7-8, 0.7 mg two times a day, 6 days): 10 to 15 min | degree of analgesia, pain scale 0-10 (patients; Patient 5, pain before 7-8): 1-3 | duration of analgesic effect (patients; Patient 6): 8 to 12 h | negative effects (patients; Patient 6): No negative effects were detected | Time of analgesia (onset) (patients; Patient 6, compression fracture of a vertebra, pain 7-8, 1.5 mg 2 times a day, 2 days): 10 to 15 min | degree of analgesia, pain scale 0-10 (patients; Patient 6, pain before 7-8): 1-3 | adverse reactions (impaired consciousness, euphoria or dysphoria, digestive tract, respiratory depression, heart disorders) (patients; all of the cases (Patients 1-6)): no adverse reactions
